Experimental data from patent publication US20060046972A1, “Cytotoxic nucleoside analog compound 003 for treating cancer” (Parker Hughes Institute, priority 2004, published 2006).

Assays:
[1] = system: DU145 prostate cancer cells; test: Confocal laser scanning microscopy of mitotic spindle, DU145; type: cell-based, human; details: 100 μM
Procedure: Immunofluorenscence was used to examine the spindle features of human cancer cell lines treated with Compound 003 or 0.5% DMSO. Initially, cells at log phase were seeded onto sterile 22 mm coverslips in six -well culture plates. 24 hours later, the cells were treated with compound 003 for 2 hours at 37° C., 5% C02, fixed in methanol (−20° C. 15 min) followed by a 15 minute incubation with PBS +0.1.% Tx-100. The coverslips were incubated with antibodies raised against α-tubulin, γ-tubulin (Sigma Chemical Co., St Louis, Mo.) (40 min 37° C.), washed in PBS-Tx-100, and incubated with an appropriate secondary antibody conjugated to FITC (Jackson ImmunoResearch, Westgrove, Pa.). Cellular DNA was labeled with 5 μM TOTO3 (Molecular Probes, Eugene, Oreg.) for 20 minutes. Coverslips were immediately inverted onto slides in Vectashield (Vector Labs, Burlingame, Calif.) to prevent photobleaching, sealed with nail varnish and stored at −20° C. The slides were examined using a Bio-Rad MRC-1024 Laser Scanning Confocal Microscope equipped with a Kr/Ar laser (BioRad, Hercules, Calif.) mounted on a Nikon Eclipse E800 upright microscope with high numerical aperture objectives (Nikon, Melville, N.Y.). Digital data were processed using Lasersharp (BioRad) and Adobe Photoshop software (Adobe Systems, Mountain View, Calif.). […]

[2] = system: Microsomal or cytosolic fractions of Nalm6 cells; test: Enzyme kinetics of Compound 003 metabolism in subcellular fractions, Nalm6; type: in vitro ADME, human
Procedure: 1−3×10^8 Nalm6 and BT20 cells were washed with PBS, resuspended in homogenizing buffer containing 10 mM Tris-HCl (pH 7.4) and 250 mM sucrose. Cells were sonicated and spun at 10,000×g, and the resulting supernatant was centrifuged again at 100,000×g to isolate microsomal and cytosolic fractions. The microsomal pellet was resuspended in a buffer containing 10 mM Tris-HCl (pH 7.4), 250 mM sucrose, 1 mM EDTA, and 20% glycerol. Microsomes or cytosols of Nalm6 (80 μg. and 86 μg, respectively) and BT20 cells (59 μg and 160 μg, respectively) were preincubated with or without 1 mM paraoxon in Tris-HCl buffer (pH 7.4) in a total volume of 250 μl for 10 minutes; 1. mM COMPOUND 003 was then added to the incubation mixture, and the reactions were allowed to proceed for another 30 minutes and terminated by addition of 125 μl of acetone. Protein precipitation was then removed by centrifugation; 100 μl of the supernatant was injected directly into the HPLC.
2.2.9 Enzyme Kinetics of Compound 003 Metabolism Microsomal or cytosolic fractions of Nalm6 and BT20 cells were incubated with COMPOUND 003 at various concentrations from 10 μM to 1.2 mM in similar reaction conditions as described above, except without the inhibitor. The reactions were allowed to proceed for 40 minutes. Km and Vmax in the Michaelis-Menten model were estimated by WinNonlin program (Scientific Consulting, Inc.)

[3] = Stability in simulated intestinal fluid; type: in vitro ADME
Procedure: Plasma samples, simulated gastric fluid and intestinal fluids (United State Pharmacopeia XXII methods) were separately spiked with COMPOUND 003 to yield final concentrations of 500 μM. Spiked samples were incubated at 37° C. At a predetermined time (5, 10, 15, 30 60 and 120 minutes), an aliquot (200 μl) of the spiked plasma sample was extracted as described above.

In the case of COC(=O)C(C)NP(=O)(OCC1OC(n2cc(C)c(=O)[nH]c2=O)CC1N=[N+]=[N-])Oc1ccc(OC)cc1 (stereo not shown) [Compound 003, 3′-azidothymidine 5′-[p-methoxyphenylmethoxyalaninyl phosphate]], the mitotic spindle formation [1] is reported as “induced aberrant multipolar spindle formation”, the Km ([2]; cytosolic fraction) is reported as 765 µM and the Vmax ([2]; cytosolic fraction) is reported as 541 pmol/mg/min. For the same molecule, the Km ([2]; microsomal fraction) was 163 µM, the Vmax ([2]; microsomal fraction) was 82.3 pmol/mg/min and the decomposition product ([3]; intestinal fluid) was “decomposed to form ala-AZT-MP”. For the same molecule, the stability ([3]; simulated intestinal fluid, 500 μM, 37° C.) was “unstable”.
